Experimental data from article PMC7759271 (Cannabis and Cannabinoid Research, 2020).

Tests used:
hTRPA1 = molecular target: T1, hTRPA1 (Homo sapiens, UniProt O75762); experiment: intracellular calcium fluorescence assay (Calcium […] dye, FlexStation […]); assay type: cell-based
T1 construct: gene TRPA1

hTRPV1 = molecular target: T2, hTRPV1 (Homo sapiens, UniProt Q8NER1); experiment: as above; assay type: cell-based
T2 construct: gene TRPV1
T2 sequence (Q8NER1 whole entry): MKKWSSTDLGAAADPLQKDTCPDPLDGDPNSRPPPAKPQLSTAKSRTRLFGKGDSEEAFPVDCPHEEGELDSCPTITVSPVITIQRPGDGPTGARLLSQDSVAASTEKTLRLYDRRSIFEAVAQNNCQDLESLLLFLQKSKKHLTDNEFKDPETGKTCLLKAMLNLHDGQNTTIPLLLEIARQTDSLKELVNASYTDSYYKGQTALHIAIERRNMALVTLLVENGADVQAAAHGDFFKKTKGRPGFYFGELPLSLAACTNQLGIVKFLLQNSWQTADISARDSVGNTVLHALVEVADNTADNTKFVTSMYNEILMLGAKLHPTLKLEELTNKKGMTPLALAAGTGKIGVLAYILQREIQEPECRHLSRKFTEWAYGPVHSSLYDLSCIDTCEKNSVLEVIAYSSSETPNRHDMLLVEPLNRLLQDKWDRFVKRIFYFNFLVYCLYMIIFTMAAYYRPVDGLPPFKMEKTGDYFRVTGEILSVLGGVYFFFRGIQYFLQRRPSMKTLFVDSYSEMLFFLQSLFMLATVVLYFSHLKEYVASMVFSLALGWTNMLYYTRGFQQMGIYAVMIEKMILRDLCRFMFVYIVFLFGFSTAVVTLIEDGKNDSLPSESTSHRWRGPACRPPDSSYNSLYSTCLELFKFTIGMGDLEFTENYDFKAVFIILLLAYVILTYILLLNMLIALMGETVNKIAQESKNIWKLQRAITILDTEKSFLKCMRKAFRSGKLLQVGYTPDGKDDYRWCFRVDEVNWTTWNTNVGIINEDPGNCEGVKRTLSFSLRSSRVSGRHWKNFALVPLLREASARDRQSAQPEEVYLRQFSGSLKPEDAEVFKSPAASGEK

T1 sequence (O75762 whole entry): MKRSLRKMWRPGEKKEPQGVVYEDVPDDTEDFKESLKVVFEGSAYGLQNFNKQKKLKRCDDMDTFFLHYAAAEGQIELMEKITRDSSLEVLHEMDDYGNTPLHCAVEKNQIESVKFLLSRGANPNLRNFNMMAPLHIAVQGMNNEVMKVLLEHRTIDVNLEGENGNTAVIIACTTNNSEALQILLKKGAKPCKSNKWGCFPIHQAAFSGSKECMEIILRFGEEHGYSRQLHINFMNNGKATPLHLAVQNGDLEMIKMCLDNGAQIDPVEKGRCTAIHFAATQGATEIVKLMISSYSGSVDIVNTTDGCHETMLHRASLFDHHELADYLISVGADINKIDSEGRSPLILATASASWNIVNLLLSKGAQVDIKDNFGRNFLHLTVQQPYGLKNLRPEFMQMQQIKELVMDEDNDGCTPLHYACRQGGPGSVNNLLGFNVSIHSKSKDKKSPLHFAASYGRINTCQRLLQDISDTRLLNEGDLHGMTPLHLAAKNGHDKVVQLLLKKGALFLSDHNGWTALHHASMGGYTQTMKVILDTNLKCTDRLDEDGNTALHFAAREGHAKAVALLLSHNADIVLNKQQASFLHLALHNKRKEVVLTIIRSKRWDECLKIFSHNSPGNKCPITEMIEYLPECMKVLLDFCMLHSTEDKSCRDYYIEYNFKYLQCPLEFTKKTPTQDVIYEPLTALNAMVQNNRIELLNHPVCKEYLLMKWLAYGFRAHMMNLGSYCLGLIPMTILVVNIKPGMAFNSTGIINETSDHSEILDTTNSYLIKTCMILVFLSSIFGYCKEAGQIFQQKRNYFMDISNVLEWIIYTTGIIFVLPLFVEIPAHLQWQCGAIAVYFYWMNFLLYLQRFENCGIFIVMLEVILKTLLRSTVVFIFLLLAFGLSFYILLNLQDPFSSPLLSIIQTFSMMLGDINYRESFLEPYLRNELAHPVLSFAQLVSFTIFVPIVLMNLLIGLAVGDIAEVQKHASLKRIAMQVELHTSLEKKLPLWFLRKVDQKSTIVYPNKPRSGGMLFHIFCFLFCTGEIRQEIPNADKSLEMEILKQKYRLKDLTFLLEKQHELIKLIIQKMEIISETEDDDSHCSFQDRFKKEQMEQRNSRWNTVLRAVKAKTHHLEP

SMILES: CCCCC/C=C\C/C=C\C/C=C\C/C=C\CCCC(=O)OC(CO)CO [2-arachidonoylglycerol]
- EC50 (hTRPA1): 10 µM

SMILES: CCCCCc1cc(O)c2c(c1)OC(C)(C)[C@@H]1CCC(C)=C[C@@H]21 [Δ9-tetrahydrocannabinol]
- EC50 (hTRPA1): 9 µM

SMILES: O=CC=Cc1ccccc1 [cinnamaldehyde]
- EC50 (hTRPA1): 12 µM

SMILES: CCCCC/C=C\C/C=C\C/C=C\C/C=C\CCCC(=O)NCCO [anandamide]
- EC50 (hTRPV1): 4.3 µM
